Data on eight molecules can be found in patent publication US20240274226A1, “MOLECULAR EVALUATION METHODS” (UNIVERSITY COLLEGE DUBLIN, priority 2021, published 2024).

Assay [1] deals with SH-SY5Y-TrkA. Kind of assay: Differentiation of TrkA cells, live cell images at 72 hours. Conditions: for Experimentally measured percentage of differentiated cells: SH-SY5Y-TrkA, ligand NGF; for Experiment (biological outcome): SY5Y-TrkA ± NGF.
Protocol: SH-SY5Y cells stably expressing TrkA or TrkB receptors were stimulated with 100 ng/ml NGF or BDNF, respectively. Differentiation and proliferation were assessed 72 hours after growth factor treatment.
In FIGS. 35A-F, the live cell images are accompanied by bar plots showing the percentage of differentiated cells. The percentages were obtained by examining three images for each set of conditions, and counting the total number of cells and the number of differentiated cells.
FIG. 52 is a bar plot showing the percentage of differentiated cells for different treatments, measured by counting cells in images and calculating the ratio of differentiated cells to total cells.
For assay [2], the system named is SH-SY5Y-TrkA. The assay can be described thus: cSTAR analysis of RPPA perturbation data (STV dot product P, DPD output S), TrkA cells. Format: cell-based, human. Conditions: ligand NGF, 45 minutes, calculated from RPPA data. From the text: (§1) Thus, we use this dimensionality reduced STV for estimating the network effects and biological outcomes of experimental perturbations. For each perturbation we determine a perturbation vector that connects the centroids of the point clouds that have been obtained before and after the perturbation. This vector changes the cell phenotype when it pushes the centroid of the original point cloud across the plane that separates different cell states, stabilizes a cell state when moving the centroid away from the separation plane, or has no effect when it is (nearly) parallel to the separation plane.
(§2) These outcomes can be quantified by determining the dot product (P) of the perturbation vector and the dimensionality reduced STV.
(§3) For a correct interpretation of perturbation data using the STV, we have to exclude the analytes that composed the modules of our core signaling network. Accordingly, the dimensionality of the molecular dataspace where the STV and perturbation vectors are calculated is reduced from 115 to 70, due to 45 analytes from Table S1A, related to the five proteins flagged in Table S3, being allocated to core network components, leaving the remaining 70 analytes to defined the reduced dimensionality dataspace.
(§4) Let A with the radius-vector {right arrow over (x)}A be the centroid of the point cloud Ai, corresponding to the unperturbed state 1. Let Apert with the radius-vector {right arrow over (x)}Apert be the centroid of the point cloud (Ai^pert), corresponding to the perturbed state 1. Then the perturbation vector is defined as,
(§5) The projection P of the perturbation vector {right arrow over (P)} on the STV ({right arrow over (s)}) is obtained as a dot product of these two vectors,
(§6) In the molecular dataspace, we consider the STV as a vector {right arrow over (s)} of unit length directed from a centroid of a differentiation TrkA point cloud to a centroid of a proliferation TrkB point cloud. We now define the output of the DPD module as the S value,
(§7) In this definition, the direction of the vector {right arrow over (n)}, which is orthogonal to the separation hyperplane, […]. Then, the DPD value (S) is positive for proliferation TrkB points and negative for differentiation TrkA points.
(§8) Using the STV ({right arrow over (s)}), a perturbation vector ({right arrow over (P)}) and the unit length vector ({right arrow over (n)}) orthogonal to the separation hyperplane, we can calculate how the DPD value changes following each inhibitor perturbation. The DPD values, determined for the centroids of unperturbed (A) and perturbed (Apert) states, S and Spert, respectively, are the following (see Eq. 9),
(§9) In order to reconstruct the posterior network, we used the drug perturbations described in Table 1, measuring 10 and 45 minute timepoints in TrkA and TrkB cells stimulated with NGF or BDNF, respectively.

The test system of assay [3] is SH-SY5Y-TrkB. Kind of assay: cSTAR analysis of RPPA perturbation data (STV dot product P, DPD output S), TrkB cells. Conditions: for Change in the DPD output ΔS / DPD output S: SH-SY5Y-TrkB, ligand BDNF, 45 minutes, calculated from RPPA data. Format: cell-based, human.
Source text: as §1, §2
TrkB cells were treated with the p90RSK inhibitor BI-D1870. Data points were acquired corresponding to 45 min 100 ng/ml GF stimulation, and these were projected into the first 3 principal components in order to calculate the point cloud centroids. For clarity, only the centroids are shown in FIG. 7, corresponding to: TrkA 45 minute NGF, TrkB 45 minute BDNF before perturbation, and the perturbed centroid TrkB RSKi 45 minute BDNF.
as §3, §4, §5, §6, §7, §8, §9

Assay [4] relates to SH-SY5Y-TrkB. Kind of assay: Differentiation of TrkB cells, live cell images at 72 hours. Format: cell-based, human. Conditions: for Experimentally measured percentage of differentiated cells: SH-SY5Y-TrkB, ligand BDNF; for Experiment (biological outcome): SY5Y-TrkB ± BDNF. On the procedure: FIG. 45 is a live cell image of TrkB cells stimulated with BDNF taken at 72 hours. FIG. 46 is a live cell image of BDNF-stimulated TrkB cells treated with 0.2 μM Trametinib taken at 72 hours. FIG. 47 is a live cell image of BDNF-stimulated TrkB cells treated with 2.5 μM Gefitinib taken at 72 hours. […] FIG. 49 is an additional experiment, being a live cell image of BDNF-stimulated TrkB cells treated with a combination of 2.5 μM Gefitinib and 0.05 μM Trametinib taken at 72 hours.

The subject of assay [5] is TrkB cells. Kind of assay: RPPA phosphoproteomics (raw fluorescent intensity) in TrkB cells stimulated with ligand and treated with inhibitors. Format: cell-based, human. Conditions: No GF stimulation. The source says:
(§10) Experiments used a custom made RPPA with 115 validated antibodies listed in Table S1A below to interrogate the activities of signaling pathways involved in TrkA/B signaling (Schramm et al., 2005), including MAPK (RAS-ERK, JNK, p38), PI3 kinase (AKT, mTORC1/2), JAK-STAT, PLCγ-PKC, TGFβ-SMAD, Wnt, cyclic-AMP, cell cycle (CDK1, Cyclins, Rb, p53, p21^WAF), apoptosis (BAX, BCL2, BCLx, Caspase 3), transcription factor (MYC, NFκB, JUN), and tyrosine kinase (SRC, EGFR, PDGFR, IGFR) pathways. In addition to the 115 antibodies, three controls are also included, Mouse 1, 2 and 3.
(§11) For each antibody, RPPA phosphoproteomics data was collected, measured as raw fluorescent intensity values in TrkA and TrkB cells stimulated with a ligand and treated with different inhibitors. A sample of the data is reproduced in Table S1B below, showing the measured fluorescent intensity values for a small sample of antibodies and a small sample of treatment and stimulation conditions. The full data set, including replicated experiments, contains 118 rows (one per antibody) and 144 columns (each containing 118 measurements and relating to an experimental set of treatment and stimulation conditions, which include replicated experiments).
(§12) In terms of the computational approach to processing the acquired data, each analyte level was first normalized on the GAPDH level, and then on the value of the same analyte in the absence of inhibitors and ligand stimulation to obtain fold-changes.
(§13) FIGS. 25-30 show the simulated time courses with the experimental data points (dots with error bars) imposed on the model predictions (curves) for a number of inhibitors: S6K inhibitor (1 μM) FIG. 25A-F; TRK inhibitor (5 μM) FIG. 26A-F; MEK inhibitor (0.5 μM) FIG. 27 A-F; AKT inhibitor (1 μM) FIG. 28A-F; JNK inhibitor (1 μM) FIG. 29A-F; and RSK inhibitor (1 μM) FIG. 30A-F. The TrkA and TrkB cells were treated with the respective inhibitor, and stimulated with 100 ng/ml NGF and BDNF, respectively. Dashed lines are the time courses in the absence of inhibitor. Error bars represent SEM and are calculated using 3 biological replicates.

Assay [6] has as its system TrkA cells. Kind of assay: RPPA phosphoproteomics (raw fluorescent intensity) in TrkA cells stimulated with ligand and treated with inhibitors. Format: cell-based, human.
Source text: as §10, §11, §12, §13

As to NGF: TrkA ligand, growth factor, in assay [1] (TrkA cells, 100 ng/ml, 72 hours), the “cell fate after growth factor treatment” value was “differentiation”.

Turning to `Cc1cc(NC(=O)c2cccc(NC(=O)/C=C/CN(C)C)c2)ccc1Nc1nccc(-c2cccnc2)n1` [JNK inhibitor, JNK-IN-8], the “Change in the DPD output ΔS” value in assay [2] was −0.07 ± 0.75; in assay [3], 0.23 ± 0.82. Also, the “DPD output S” value in assay [2] is on record as −2.4 ± 0.7; in assay [3], 5.95 ± 0.56. The results for the “Experimentally measured percentage of differentiated cells” value in assay [4] (72 hours) and in assay [1] (72 hours) were 25% ± 4% and 45% ± 5%, respectively. Moreover, the “Experiment (biological outcome)” value in assay [4] and in assay [1] was “No effect” throughout.

`CC(C)CCN1c2nc(Nc3cc(F)c(O)c(F)c3)ncc2N(C)C(=O)C1C` (stereo not drawn) [p90RSK inhibitor, BI-D1870]: in assay [2], the “Change in the DPD output ΔS” value is 1.8 ± 0.3 and the “DPD output S” value is −0.54 ± 0.13. For the same molecule, in assay [3], the “Change in the DPD output ΔS” value is −1.7 ± 0.6 and the “DPD output S” value is given as 4.0 ± 0.2. Also, the “Perturbation vector component collinear with the STV” value in assay [3] (TrkB cells, 45 min 100 ng/ml GF stimulation) is reported as “moves the proliferation state towards differentiation”. Besides, the “Experimentally measured percentage of differentiated cells” value in assay [4] (72 hours) is recorded as 29% ± 4%. The “Experiment (biological outcome)” value in assay [4] is given as “weakly increasing differentiation”. The “Experimentally measured percentage of differentiated cells” value in assay [1] (72 hours) is recorded as 37.0% ± 2.4%. Besides, the “Experiment (biological outcome)” value in assay [1] was “decreasing differentiation”. In assay [5], the “Bad P Ser112 raw fluorescent intensity (RPPA)” value is 0.103, the “Bad P Ser136 raw fluorescent intensity (RPPA)” value is given as 0.07225, the “Bak raw fluorescent intensity (RPPA)” value amounted to 0.1888 and the “CrkL P Tyr207 raw fluorescent intensity (RPPA)” value came to 0.2852. Besides, in assay [5], the “HSP27 (HSPB1) P Ser78 raw fluorescent intensity (RPPA)” value is on record as 0.3221 and the “JAK1 raw fluorescent intensity (RPPA)” value came out at 0.1064.

Take `Cn1cc(-c2ccc(F)c(C(F)(F)F)c2)nc1C1CCN(c2ncnc3[nH]ncc23)CC1` [p70S6K inhibitor, LY2584702]: in assay [2], the “Change in the DPD output ΔS” value is reported as −1.5 ± 0.4 and the “DPD output S” value was −3.8 ± 0.3. For the same molecule, in assay [3], the “Change in the DPD output ΔS” value is on record as −7.8 ± 0.6 and the “DPD output S” value is −2.10 ± 0.05. For the same molecule, in assay [6] (10 min NGF stimulation), the “Bad P Ser112 raw fluorescent intensity (RPPA)” value came out at 0.1181, the “Bad P Ser136 raw fluorescent intensity (RPPA)” value stood at 0.109, the “Bak raw fluorescent intensity (RPPA)” value was found to be 0.211 and the “CrkL P Tyr207 raw fluorescent intensity (RPPA)” value worked out at 0.2814. Moreover, in assay [6] (10 min NGF stimulation), the “HSP27 (HSPB1) P Ser78 raw fluorescent intensity (RPPA)” value is given as 0.2939 and the “JAK1 raw fluorescent intensity (RPPA)” value is reported as 0.1005. In assay [4] (72 hours), the “Experimentally measured percentage of differentiated cells” value is given as 45% ± 3%. Besides, the “Experimentally measured percentage of differentiated cells” value in assay [1] (72 hours) is reported as 41% ± 5%.

Consider `COc1cc2ncnc(Nc3ccc(F)c(Cl)c3)c2cc1OCCCN1CCOCC1` [Gefitinib], for which, in assay [4] (BDNF-stimulated, 72 hours, combination 1.25 μM Gefitinib + 0.1 μM Trametinib or 2.5 μM + 0.05 μM, alone 2.5 μM Gefitinib, 0.2 μM Trametinib), the “differentiation of TrkB cells (live cell images)” value was “not with either inhibitor applied separately”.

Turning to `CC(=O)Nc1cccc(-n2c(=O)n(C3CC3)c(=O)c3c(Nc4ccc(I)cc4F)n(C)c(=O)c(C)c32)c1` [MEK inhibitor, Trametinib], in assay [2], the “Change in the DPD output ΔS” value is given as −0.7 ± 0.4 and the “DPD output S” value is recorded as −3.0 ± 0.3. In assay [3], the “Change in the DPD output ΔS” value was 0.35 ± 0.72 and the “DPD output S” value was 6.1 ± 0.4. Besides, in assay [6] (45 min NGF stimulation), the “Bad P Ser112 raw fluorescent intensity (RPPA)” value was found to be 0.2853, the “Bad P Ser136 raw fluorescent intensity (RPPA)” value is listed as 0.07024, the “Bak raw fluorescent intensity (RPPA)” value turned out to be 0.0709 and the “CrkL P Tyr207 raw fluorescent intensity (RPPA)” value is on record as 0.1174. Besides, in assay [6] (45 min NGF stimulation), the “HSP27 (HSPB1) P Ser78 raw fluorescent intensity (RPPA)” value amounted to 0.04349 and the “JAK1 raw fluorescent intensity (RPPA)” value was 0.0516. Also, the “Experimentally measured percentage of differentiated cells” value in assay [4] (72 hours) was 20% ± 1%. The “Experimentally measured percentage of differentiated cells” value in assay [1] (72 hours) is reported as 48% ± 3%. Also, in assay [1], the “Experiment (biological outcome)” value is listed as “No effect”.

In the case of `CC[n+]1c(/C=C/N(C)c2ccccc2)n(-c2ccccc2)c2ccc(-c3nc4ccccc4s3)cc21.[I-]` [AKT inhibitor, AKT inhibitor IV], the “Change in the DPD output ΔS” value was −1.3 ± 0.6 in assay [2] and −1.5 ± 1.0 in assay [3]. Moreover, the results for the “DPD output S” value in assay [2] and in assay [3] were −3.6 ± 0.5 and 4.3 ± 0.8, respectively. Besides, the results for the “Experimentally measured percentage of differentiated cells” value in assay [4] (72 hours) and in assay [1] (72 hours) were 34.3% ± 0.8% and 62% ± 3%, respectively.

B1: BDNF: TrkB ligand, growth factor (protein, UniProt P23560 19-247, looked up)
Neurotrophic factor BDNF …: APMKEANIRGQGGLAYPGVRTHGTLESVNGPKAGSRGLTSLADTFEHVIEELLDEDQKVRPNEENNKDADLYTSRVMLSSQVPLEPPLLFLLEEYKNYLDAANMSMRVRRHSDPARRGELSVCDSISEWVTAADKKTAVDMSGGTVTVLEKVPVSKGQLKQYFYETKCNPMGYTKEGCRGIDKRHWNSQCRTTQSYVRALTMDSKKRIGWRFIRIDTSCVCTLTIKRGR
Consider B1, for which, in assay [4] (TrkB cells, 100 ng/ml, 72 hours), the “cell fate after growth factor treatment” value is reported as “proliferation”.
